From patent US6737383B1, “Herbicidal oxadiazolidines” (priority 1999, dated 2004)

How the values were obtained:
[1] = tested on: velvetleaf; test: Test B pre/postemergence velvetleaf; format: in vivo, Abutilon theophrasti
How it was run: (§1)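 Response is a visual 0-to-10 score relative to untreated plants, where 0 means no effect and 10 means complete control, taken twelve to sixteen days after application. Treatments went onto soil at planting and onto foliage of 1- to 4-leaf plants, using a surfactant-containing non-phytotoxic solvent.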

[2] = tested on: cocklebur; test: Test B pre/postemergence cocklebur; format: in vivo, Xanthium strumarium
How it was run: as §1

[3] = tested on: bamyardgrass; test: Test B flood test barnyardgrass; format: in vivo, Echinochloa crus-galli
How it was run: (§2)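 Plants were grown to the 2-leaf stage before treatment with test chemical, then held in a greenhouse for twelve to sixteen days. Injury was visually rated against untreated controls on a 0–10 scale, where 0 is no effect and 10 is complete control.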

[4] = tested on: wheat; test: Test B pre/postemergence wheat; format: in vivo, Triticum aestivum
How it was run: as §1

[5] = tested on: duck salad; test: Test B flood test duck salad; format: in vivo, Heteranthera limosa
How it was run: as §2

[6] = tested on: crabgrass; test: Test B pre/postemergence crabgrass; format: in vivo, Digitaria sanguinalis
How it was run: as §1

[7] = tested on: rape; test: Test B pre/postemergence rape; format: in vivo, Brassica napus
How it was run: as §1

[8] = tested on: soybean; test: Test B pre/postemergence soybean; format: in vivo, Glycine max
How it was run: as §1

[9] = tested on: giant foxtail; test: Test B pre/postemergence giant foxtail; format: in vivo, Setaria faberii
How it was run: as §1

[10] = tested on: corn; test: Test B pre/postemergence corn; format: in vivo, Zea mays
How it was run: as §1

[11] = tested on: pigweed; test: Test B pre/postemergence pigweed; format: in vivo, Amaranthus retroflexus
How it was run: as §1

[12] = tested on: purple nutsedge; test: Test B pre/postemergence purple nutsedge; format: in vivo, Cyperus rotundus
How it was run: as §1

[13] = tested on: sugar beet; test: Test B pre/postemergence sugar beet; format: in vivo, Beta vulgaris
How it was run: as §1

[14] = tested on: morningglory; test: Test B pre/postemergence morningglory; format: in vivo, Ipomoea hederacea
How it was run: as §1

[15] = tested on: wild oat; test: Test B pre/postemergence wild oat; format: in vivo, Avena fatua
How it was run: as §1

[16] = tested on: rice; test: Test B flood test rice; format: in vivo, Oryza sativa
How it was run: as §2

[17] = Postemergence, Rate 62 g/ha, scale 0 to 10, 0 is no effect, 10 is complete control
[18] = Postemergence, Rate 125 g/ha, scale of 0 to 10 where 0 is no effect and 10 is complete control
[19] = Postemergence, Rate 250 g/ha, scale of 0 to 10, 0 is no effect, 10 is complete control
[20] = Preemergence, Rate 62 g/ha, scale 0 to 10 (0 no effect, 10 complete control)
[21] = Preemergence, Rate 125 g/ha, scale of 0 to 10 where 0 is no effect and 10 is complete control
[22] = Preemergence, Rate 250 g/ha, scale 0 to 10 (0 no effect, 10 complete control)
[23] = Preemergence, Rate 500 g/ha, scale of 0 to 10 where 0 is no effect and 10 is complete control
[24] = Postemergence, Rate 500 g/ha, scale of 0 to 10 where 0 is no effect and 10 is complete control
[25] = Rate 62 g/ha, flood test species, Pre-emergence, visual evaluation after twelve to sixteen days
[26] = Rate 125 g/ha, under heading Pre-emergence, flood test species, visual evaluation after twelve to sixteen days
[27] = Rate 250 g/ha, Pre-emergence (flood test species), scale 0 to 10, 0 is no effect, 10 is complete control
[28] = Rate 500 g/ha, Pre-emergence section of Table B, 0 to 10 scale (0 no effect, 10 complete control)

CC(C)N(C(=O)n1oc(=O)n(CNC(=O)c2ccccc2)c1=O)c1ccc(F)cc1F [Compound 619]
4: Plant response rating, Velvetleaf [1, 23]
2: Velvetleaf plant response rating [1, 19] | Plant response rating, Crabgrass [6, 24] | Plant response rating, Corn [10, 23]
3: Plant response rating, Rape [7, 24] | Plant response rating, Giant foxtail [9, 24] | Giant foxtail plant response rating [9, 21]
1: Crabgrass plant response rating [6, 21] | Plant response rating, Soybean [8, 17] | Plant response rating, Soybean [8, 18] | Soybean plant response rating [8, 19] | Redroot pigweed plant response rating [11, 19] | Plant response rating, Morningglory [14, 18] | Morningglory plant response rating [14, 19] | Plant response rating, Morningglory [14, 24]
7: Plant response rating, Giant foxtail [9, 22]
0: Plant response rating, Velvetleaf [1, 17] | Plant response rating, Velvetleaf [1, 18] | Velvetleaf plant response rating [1, 20] | Velvetleaf plant response rating [1, 21] | Plant response rating, Velvetleaf [1, 22] | Plant response rating, Cocklebur [2, 17] | Plant response rating, Cocklebur [2, 18] | Cocklebur plant response rating [2, 19] | Plant response rating, Cocklebur [2, 24] | Cocklebur plant response rating [2, 20] | Cocklebur plant response rating [2, 21] | Plant response rating, Cocklebur [2, 22] | Plant response rating, Cocklebur [2, 23] | Plant response rating, Barnyardgrass (0 to 10 scale, 0 is no effect, 10 is complete control) [3, 25] | Barnyardgrass plant response rating (0 to 10 scale, 0 is no effect, 10 is complete control) [3, 26] | Barnyardgrass plant response rating [3, 27] | Barnyardgrass plant response rating [3, 28] | Plant response rating, Wheat [4, 17] | Plant response rating, Wheat [4, 18] | Wheat plant response rating [4, 19] | Wheat plant response rating [4, 20] | Wheat plant response rating [4, 21] | Plant response rating, Wheat [4, 22] | Plant response rating, Wheat [4, 23] | Plant response rating, Ducksalad (0 to 10 scale, 0 is no effect, 10 is complete control) [5, 25] | Ducksalad plant response rating (0 to 10 scale, 0 is no effect, 10 is complete control) [5, 26] | Ducksalad plant response rating [5, 27] | Ducksalad plant response rating [5, 28] | Plant response rating, Crabgrass [6, 17] | Plant response rating, Crabgrass [6, 18] | Crabgrass plant response rating [6, 19] | Crabgrass plant response rating [6, 20] | Plant response rating, Rape [7, 17] | Plant response rating, Rape [7, 18] | Rape plant response rating [7, 19] | Rape plant response rating [7, 20] | Rape plant response rating [7, 21] | Plant response rating, Rape [7, 22] | Plant response rating, Rape [7, 23] | Soybean plant response rating [8, 20] | Soybean plant response rating [8, 21] | Plant response rating, Soybean [8, 22] | Plant response rating, Soybean [8, 23] | Plant response rating, Giant foxtail [9, 17] | Plant response rating, Giant foxtail [9, 18] | Giant foxtail plant response rating [9, 19] | Giant foxtail plant response rating [9, 20] | Plant response rating, Corn [10, 17] | Plant response rating, Corn [10, 18] | Corn plant response rating [10, 19] | Plant response rating, Corn [10, 24] | Corn plant response rating [10, 20] | Corn plant response rating [10, 21] | Plant response rating, Corn [10, 22] | Plant response rating, Redroot pigweed [11, 17] | Plant response rating, Redroot pigweed [11, 18] | Redroot pigweed plant response rating [11, 20] | Redroot pigweed plant response rating [11, 21] | Plant response rating, Redroot pigweed [11, 22] | Plant response rating, Redroot pigweed [11, 23] | Plant response rating, Nutsedge [12, 17] | Plant response rating, Nutsedge [12, 18] | Nutsedge plant response rating [12, 19] | Plant response rating, Nutsedge [12, 24] | Nutsedge plant response rating [12, 20] | Nutsedge plant response rating [12, 21] | Plant response rating, Nutsedge [12, 22] | Plant response rating, Sugarbeets [13, 17] | Plant response rating, Sugarbeets [13, 18] | Sugarbeets plant response rating [13, 19] | Sugarbeets plant response rating [13, 20] | Sugarbeets plant response rating [13, 21] | Plant response rating, Sugarbeets [13, 22] | Plant response rating, Sugarbeets [13, 23] | Plant response rating, Morningglory [14, 17] | Morningglory plant response rating [14, 20] | Morningglory plant response rating [14, 21] | Plant response rating, Morningglory [14, 22] | Plant response rating, Morningglory [14, 23] | Plant response rating, Wild oats [15, 17] | Plant response rating, Wild oats [15, 18] | Wild oats plant response rating [15, 19] | Wild oats plant response rating [15, 20] | Wild oats plant response rating [15, 21] | Plant response rating, Wild oats [15, 22] | Plant response rating, Wild oats [15, 23] | Plant response rating, Rice (0 to 10 scale, 0 is no effect, 10 is complete control) [16, 25] | Rice plant response rating (0 to 10 scale, 0 is no effect, 10 is complete control) [16, 26] | Rice plant response rating [16, 27] | Rice plant response rating [16, 28]
6: Plant response rating, Crabgrass [6, 22]
8: Plant response rating, Crabgrass [6, 23] | Plant response rating, Giant foxtail [9, 23]
